Experimental findings from PMC3511435, “A Transposon-Derived DNA Polymerase from Entamoeba histolytica Displays Intrinsic Strand Displacement, Processivity and Lesion Bypass” (PLoS ONE, 2012) are described below.

In the test the test system is T1, EhDNApolB2.
T1 construct: N-terminal 153 residues deleted, 660-aa C-terminal exonuclease and polymerase region, pCOLD I vector (IMAC-purified), E. coli BL21 DE3 Rosetta II, 78 kDa
As to the kind of experiment: primer extension on M13mp18 ssDNA, denaturing gel, phosphorimaging. The class given is biochemical, Entamoeba histolytica. The following applies: 25 µM dNTPs; 1 nM 32P-labelled 17mer primer / circular M13mp18 ssDNA; 20 nM enzyme; 10 min, 37 °C; read-out: reduced by half at a concentration of.

With `C[C@@]1(CO)[C@H](O)CC[C@@]2(C)[C@H]1CC[C@H]1C[C@@H]3C[C@@]12CC[C@]3(O)CO` [aphidicolin], the IC50 was found to be 242 µM.
